pIC50: −log10 of the molar value. “And” between values parts separate entries of the source, which are not always exact repeats. Equal entries are not always repeated.
Tested on: P. falciparum 3D7 growth, pLDH absorbance
Experiment: P. falciparum 3D7 growth inhibition, dose response, strain 3D7 (AID 2305)

Row | SMILES | pIC50
1 | Cc1cc(C(F)(F)F)n2nc(C(=O)N(Cc3cncn3Cc3ccccc3F)CC3CC3)cc2n1 | 6.02
2 | O=S(=O)(NCCN1CCCC1)c1ccc(-c2cccc(CNCCc3cccs3)c2)s1 | 6.15
3 | CCCCCOc1c(CCC)cc(Cc2cnc(N)nc2N)cc1CCC | 6.05
4 | Cc1cc(C2CCN(CCCCNC(=O)c3ccc(-c4ccc(C(F)(F)F)cc4)cc3)CC2)c(C)cc1OCC(N)=O | 6.10
5 | CCOc1ccc2c(NN=Cc3ccc(F)cc3)cc(C)nc2c1 | 6.24
6 | CC(C)c1cccc(OCC2CCN(c3ncc(C(=O)Nc4ccccc4)cc3Cl)CC2)c1 | 5.97
7 | COc1ccc(-c2ccc(NC(=O)c3ccccc3)cc2)cc1CN1CCCN(C)CC1 | 6.04
8 | Cc1cc(Nc2cc(Cl)cc(Cl)c2)nc(N)n1 | 5.94
9 | CCCCOc1c(CNCCCCCCNCc2ccc3ccccc3c2OCCCC)ccc2ccccc12 | 6.06
10 | COc1ccc(CCn2c(=N)c(C(=O)NCc3ccc(C)cc3)cc3c(=O)n4ccccc4nc32)cc1 | 5.95
11 | Cc1cc(C=C(P(=O)(OC(C)C)OC(C)C)P(=O)(OC(C)C)OC(C)C)c2ccccc2c1O | 5.97
12 | CCCCCCN1CCCN(Cc2cccc(NC(=O)c3cc4ccccc4s3)c2)CC1 | 6.18
13 | CN1CCN(Cc2ccc(-c3ccc4ncnc(Nc5ccc(OCc6ccccc6)cc5)c4c3)o2)CC1 | 6.16
14 | Fc1ccc(CNc2ncc(-c3ccsc3)c(-c3nccs3)n2)cc1 | 7.15
15 | CCCCCCN1CCN(Cc2cccc(NC(=O)c3cc4ccccc4s3)c2)CC1 | 6.04
16 | Cc1nc(-c2ccc3c(c2)CCN(CCC2CCC(NC(=O)c4cc5cccc(Cl)c5[nH]4)CC2)CC3)no1 (stereo unspecified) | 6.20
17 | O=C(Nc1ccccc1F)NC1CCN(c2ccnc(Nc3ccc(F)cc3)n2)CC1 | 6.12
18 | NC1CCN(Cc2cccc(-c3cccc(-c4nc5ccccc5[nH]4)c3)c2)C1 (stereo unspecified) | 6.10
19 | O=C(O)/C=C/c1cccc(F)c1F | 7.00
20 | Cc1ccc2c(C3=CCN(CCCCC4(C)C(=O)Nc5c(F)cccc54)CC3)c(C)[nH]c2c1 (stereo unspecified) | 6.57
21 | CCOc1cc(CNCCCCCCNCc2cc(OCC)c(OCC)c3ccccc23)c2ccccc2c1OCC | 6.55
22 | C[C@@H](Oc1cc(-n2cnc3ccc(OCC4CCN(S(C)(=O)=O)CC4)cc32)sc1C(N)=O)c1ccccc1C(F)(F)F | 5.99
23 | Cn1nc(C(F)(F)F)c(-c2ccc(F)cc2)c1NC(=O)Nc1ccccc1 | 6.10
24 | COc1cc(C(=O)N2CCOC(CCN3CCC[C@H]3C(=O)Nc3ccccc3)(c3ccc(Cl)c(Cl)c3)C2)cc(OC)c1OC (stereo partly specified) | 6.14

Row | SMILES | pIC50
25 | CCNc1cc(C(=O)N[C@@H](Cc2cccc(F)c2)[C@H](O)CNC(C)CCCC(C)C)cc(N2CCCCS2(=O)=O)c1 (stereo partly specified) | 6.22
26 | COc1cccc(OC)c1C(=O)N1CCC2(CC1)C(=O)N(CC(=O)NC1CCCCC1)CN2c1ccccc1 | 6.02
27 | CCNC(=O)Nc1cccc(-c2cccc(-c3nc4c(C)cccc4[nH]3)c2)c1 | 5.98
28 | Fc1ccc2c(NN=Cc3ccccc3)ccnc2c1 | 6.13
29 | Cc1ccc(N2C(N)=NC(N)=NC2(C)C)cc1 | 7.40
30 | Cc1c(OC(C)C)nc2ccccc2c1C(=O)N[C@H](c1cccc(F)c1)C1CC1 | 5.96
31 | CN1CCN(c2cc(NC(=O)c3ccc(-c4ccc(Cl)cc4)cc3)ccc2Cl)CC1 | 6.21
32 | CC(CN1CCN(C)CC1)C(=O)Nc1cccc(-c2ccc(-c3nc4ccccc4[nH]3)s2)c1 (stereo unspecified) | 6.20
33 | CN(C)CCC1CCN(CCS(=O)(=O)c2cccc(Nc3ncc(-c4cccc(F)c4)cn3)c2)CC1 | 5.97
34 | O=C(Nc1ccc(Br)c(C(F)(F)F)c1)c1cccc([N+](=O)[O-])c1 | 6.04
35 | CN1CCN(c2ccc(-c3cc(-c4ccncc4)c(-c4ccc(Cl)c(O)c4)o3)cc2)CC1 | 6.13
36 | COc1ccc2nc(C)cc(NN=Cc3ccccc3Cl)c2c1 | 6.22
37 | Cc1noc(-c2ccc(NC[C@@H](C)NC[C@H](O)c3cccc(Cl)c3)cc2)n1 | 6.12
38 | CCOc1ccc2c(NN=Cc3ccc(OC)c(OC)c3)cc(C)nc2c1 | 6.15
39 | O=C(/C=C/c1ccc(Cl)c(Cl)c1)N1CCC(CN2CCC(c3nc4ccccc4n3CCCO)CC2)CC1 | 6.08
40 | CN(C)c1ccc(-c2ccc(C(=O)NC3CCN(Cc4ccc(F)cc4)CC3)s2)cc1 | 5.98
41 | Cc1cc(N)nc2ccc(-c3ccc(CCN)cc3)cc12 | 6.21
42 | CN1CCC(c2csc3ccc(NC(=O)Nc4ccc(-c5ccncc5)c5ccccc45)cc23)CC1 | 5.99
43 | CS(=O)(=O)NCCCNCc1cccc(-c2ccc(-c3nc4ccccc4[nH]3)s2)c1 | 5.97
44 | Cc1cc(N(C)C)nc(Nc2ccc(NC(=O)c3c(F)cccc3Cl)cc2)n1 | 5.96
45 | N#Cc1ccc(CN2CCC(Oc3ccc(NC(=O)c4ccsc4)cc3Cl)C2)cc1 (stereo unspecified) | 6.17
46 | O=C(Nc1ccccc1)Nc1ccc(-c2cccc(-c3nc4ccc(C(F)(F)F)cc4[nH]3)c2)cc1 | 6.14
47 | COc1ccc2nc(C)cc(NN=Cc3ccc([N+](=O)[O-])o3)c2c1 | 6.15
48 | O=C(Nc1ccc(C(F)(F)F)cc1)c1cccc(S(=O)(=O)NCC2CCCN(CC3CCCCC3)C2)c1 (stereo unspecified) | 6.12

Row | SMILES | pIC50
49 | CCNc1cc(C(=O)N[C@@H](Cc2ccccc2)[C@H](O)CNC(C)(C)Cc2ccccc2)cc(N2CCCC2=O)c1 | 6.59
50 | CN1CCCc2ccc(NC(=O)c3cnc(-c4ccccc4)cn3)cc21 | 6.04
51 | Cc1cc(-c2cccc3c(C(=O)N4CCc5cc6nccc(N7CCCN(C)CC7)c6cc54)cccc23)cc(C)n1 | 6.36
52 | COc1ccc2nc(C)cc(Nc3ccc(Oc4ccc(Cl)c5ccccc45)c(Cl)c3)c2c1 | 6.14
53 | O=C(NC1CCN(Cc2ccccc2)CC1)c1cc(-c2ccncc2)c(-c2ccc(Cl)c(O)c2)o1 | 6.39
54 | C(=N\Nc1nccc2sc(-c3cccnc3)cc12)/c1ccncc1 | 6.68
55 | COc1ccc(CN2CCCN(Cc3cccc(NC(=O)c4cc5ccccc5s4)c3)CC2)cc1 | 6.08
56 | O=C(Cc1ccccc1)NC(c1ccc(Cl)cc1)c1ccc2cccnc2c1O (stereo unspecified) | 6.07
57 | CN(C)CCN(C)Cc1ccc(-c2cccc(-c3nc4ccccc4[nH]3)c2)cc1 | 6.12
58 | COc1ccc(CNCc2cccc(-c3cccc(-c4nc5c(C)cccc5[nH]4)c3)c2)cc1 | 6.89
59 | c1ccc(CNCc2cccc(-c3cccc(-c4nc5ccccc5[nH]4)c3)c2)cc1 | 6.24
60 | Oc1cccc(-c2cnc3ccc(NCc4ccc(F)cc4)nn23)c1 | 5.97
61 | Cc1nc(Nc2ccc(F)cc2)nc(N2CCc3cc(O)ccc3C2C)c1C (stereo unspecified) | 6.12
62 | Fc1cccc(C=NNc2ccnc3ccccc23)c1 | 6.08
63 | Cc1cccc2[nH]c(-c3cccc(-c4cccc(CN5CCN(c6ccc(C#N)cn6)CC5)c4)c3)nc12 | 5.94
64 | O=C(/C=C/c1cccc(OC(F)(F)F)c1)NCCCCCN1CCC(c2c[nH]c3ccccc23)CC1 | 6.02
65 | COc1ccc(NC(=O)N2CCCN(CCCCCNC(=O)/C=C/c3ccc(Cl)cc3)CC2)cc1Cl | 6.09
66 | N#Cc1ccc2c(c1)CN(CCC1CCC(NC(=O)/C=C/c3c[nH]c4ccccc34)CC1)CC2 (stereo unspecified) | 6.00 and 6.05
67 | O=C(Nc1cccc(-c2ccc(-c3nc4ccccc4[nH]3)cc2)c1)c1cnn2cccnc12 | 5.97
68 | Nc1nc(N)c2c(ccc3c2cnn3S(=O)(=O)N2CCCC2)n1 | 7.70
69 | Cc1cccc2c3c([nH]c12)C1(CCN(CCc2ccccc2)CC1)NC(C(=O)NCc1ccccc1)C3 (stereo unspecified) | 6.00
70 | COc1ccc2[nH]cc(C3CCN(CCCCNC(=O)c4ccc(NC(=O)c5ccc(Cl)cc5)cc4)CC3)c2c1 | 5.99
71 | NCc1ccc(Nc2nccc(Nc3ccc(-c4ccccc4)cc3)n2)cc1 | 6.05
